This is an account of results in the OPERA property sets (Mansouri et al. 2018).

The structures appear in SMILES notation.

Turning to `CN(C)CCN1C(=O)c2ccccc2Nc2cc(Cl)ccc21`, the logP came to 3.73.
With `NS(=O)(=O)c1cc2c(cc1C(F)(F)F)NC=NS2(=O)=O`, the logP was determined as 0.32.
In turn, `CN(Cc1ccccc1)C(=O)C(Cc1ccccc1)NC(=O)C(Cc1cn(C(=O)OC(C)(C)C)c2ccccc12)NC(=O)CC1NC(=O)C2C3CCC(CC3)N2C1=O` (stereo unspecified) showed a logP of 5.33.
The same measure, in the same setting: in the case of `NC(=O)Nc1ccc(Cl)c(Cl)c1` it was 2.65; in that of `CCc1[nH]ccc(=O)c1O`, 0.05; in that of `CC=COCC(O)Cn1ccnc1[N+](=O)[O-]` (stereo unspecified), 0.28.
On the same count and under the same terms, to `CCN(C)C(=O)CCn1ccc(=O)c(O)c1C` belongs -0.69; to `Cc1cc(OCC(=O)O)ccc1S(C)(=O)=O`, 0.54; to `CC(C)(C)C(COc1ccc(Cl)cc1)OC(=S)n1ccnc1` (stereo unspecified), 4.96.
For `CNc1nc(C)c(C(=O)CCN2CCOCC2)s1`, the logP was 0.95.
For `CC1=NS(=O)(=O)c2cc(S(N)(=O)=O)c(Cl)cc2N1`, the logP turned out to be 0.03.
For `Cn1c(=O)c2[nH]c(Cl)nc2n(C)c1=O`, where the note is “pH 7.4”, the logD was -0.85.
The compound `CNC(=C[N+](=O)[O-])NCCSCc1nc[nH]c1C` came in with a logP of -0.4.
Same read-out and setting: to `CCCCC(=O)OC[C@H]1O[C@@H](n2cc(I)c(=O)[nH]c2=O)C[C@@H]1O` belongs 1.44; to `CCCCCCC(=O)O`, 2.42; to `COc1ccccc1/C=C/C(=O)O`, 2.54.
Still for that read-out and setting: in the case of `CCOC(=O)NC1=NCC(c2cccc(F)c2)N1C` (stereo unspecified) it was 1.84; in that of `CNC12CCCCC1CC(O)c1ccccc12` (stereo unspecified), 1.84.
Same read-out and setting: in the case of `CCCC(=O)n1c(=O)[nH]cc(F)c1=O` it was 0.67; in that of `Cc1cc2n(c1C(=O)c1ccc(Cl)cc1)CCC2C(=O)O` (stereo unspecified), 3.6.
Consider `COC(=O)NC1=NCC(c2cccc(Cl)c2)N1C` (stereo unspecified), for which the logP was found to be 2.1.
Same read-out and setting: to `CCCCn1ccc(=O)c(O)c1C` belongs 0.7; to `CCCCn1ccc(=O)c(O)c1CC`, 1.22; to `CCCCCCCC(=O)N[C@@H]1C(=O)N2[C@@H]1SC(C)(C)[C@@H]2C(=O)O`, 3.32.
Take `CCCn1ccc(=O)c(O)c1CC`: the logP was 0.7.
The compound `CC(C(O)c1ccccc1)N(C)C` (stereo unspecified) displayed a logP of 1.7.
The same measure, in the same setting: to `CN1CC(=O)N(c2ccccc2)C1=O` belongs 0.14.
For the compound `CC(C)c1ccc(OCC(OC(=S)n2ccnc2)C(C)(C)C)cc1` (stereo unspecified), the logP came to 5.21.
The same measure, in the same setting: to `COC(=O)Nc1nc2cc(C(=O)c3ccccc3)ccc2n1C(=O)OC` belongs 2.47.
On the same count and under the same terms, in the case of `COC(=O)NC1=NCC(c2ccccc2Br)N1` (stereo unspecified) it was 1.85; in that of `O=C(c1c(F)c(F)c(F)c(F)c1F)c1ccc2n1CCC2C(=O)O` (stereo unspecified), 3.24.
Same read-out and setting: in the case of `COC(=O)c1cnc2n(c1=O)C(C)CCC2` (stereo unspecified) it was 0.16; in that of `OC(Cn1ccnc1)(c1ccc(F)cc1)c1ccc(F)cc1`, 2.95; in that of `Cc1c(O)c(=O)ccn1CCC(=O)NC(C)C`, -0.47.
As to `CC(C)(C)C(COc1ccc(Cl)cc1)OC(=O)n1ccnc1` (stereo unspecified), the logP is 4.19.
With `CCC(C(=O)OCc1ccc(Cl)cc1)C(CO)Cc1cncn1C` (stereo unspecified), the logP amounted to 2.69.
Compound `CNC(=O)CCn1ccc(=O)c(O)c1C` showed a logP of -1.1.
For the compound `CCCCN(C)C(=O)c1cccc(Oc2ccccc2)c1`, the logP turned out to be 3.89.
Turning to `CCOC(=O)c1cnc2n(c1=O)CC(C)CC2` (stereo unspecified), the logP was 0.71.
Still for that read-out and setting: in the case of `CC(C)(C)OC(=O)C(C(=O)OC(C)(C)C)=C1SCCS1` it was 4.01; in that of `CCNC(=O)[C@@H](NC(=O)CNC(=O)c1ccccc1)C(C)C`, 1.05.
On the same count and under the same terms, to `Nc1ccc(S(=O)(=O)N2C(=O)NC(=O)C2(c2ccccc2)c2ccccc2)cc1` belongs 3.27.
As to `O=c1c2c(nc3ccccn13)CCC2`, the logP worked out at 1.19.
Still for that read-out and setting: in the case of `COc1cc(C(N)=O)ccc1-c1nc2ccncc2[nH]1` it was 1.18; in that of `CC(CN1CCCCC1)C(=O)c1ccccc1` (stereo unspecified), 3.51; in that of `COC(=O)c1c(C)[nH]c(-c2cc(Cl)ccn2)c1C(=O)OC`, 2.63.
The same measure, in the same setting: in the case of `CC(C)(C)C(COc1ccc(Br)cc1)OC(=O)n1ccnc1` (stereo unspecified) it was 4.37.
Take `O=C(O)Cc1ccc(O)c(O)c1`: the logP came to 0.98.
On the same count and under the same terms, in the case of `CC(=O)NC(CC(N)=O)C(N)=O` (stereo unspecified) it was -2.41; in that of `O=C(O)COc1cc(Cl)cc(Cl)c1`, 2.84.
The compound `CSc1ncnc2c1ncn2[C@@H]1O[C@H](CO)[C@@H](O)[C@H]1O` came in with a logP of 0.09.
Same read-out and setting: to `CCCCCN(C)C(=O)c1cccc(Oc2ccccc2)c1` belongs 4.43; to `Nc1nc(N)c2ncn([C@H]3C=C[C@@H](CO)O3)c2n1`, -0.48; to `CN1CC(C)(C)C(=O)c2ccccc21`, 2.72.
On the same count and under the same terms, to `CC(C)c1ncc([N+](=O)[O-])[nH]1` belongs 0.9; to `COc1ccc(C(O)C(=O)O)cc1` (stereo unspecified), 0.63.
Regarding `Cc1ccc2c(c1)C1CN(C)CCC1N2C(=O)C=Cc1ccccc1` (stereo unspecified), the logP stood at 3.49.
Still for that read-out and setting: to `NS(=O)(=O)c1ccc(S(=O)(=O)CCCO)c([N+](=O)[O-])c1` belongs -0.05; to `O=C(OCC1OC(n2cc(I)c(=O)[nH]c2=O)CC1O)c1ccc([N+](=O)[O-])cc1` (stereo unspecified), 1.24; to `CCCCC(NC(Cc1ccccc1)C(=O)N1CCC(OCOC)CC1)C(=O)NC(CC1CCCCC1)C(O)CC(C(=O)NCCCN1CCOCC1)C(C)C` (stereo unspecified), 4.5.
Turning to `CNC(=O)N1C(=O)CN=C(c2ccccc2)c2cc([N+](=O)[O-])ccc21`, the logP is 1.76.
Same read-out and setting: to `COC(=O)C(C#N)=Cc1ccc(SC)o1` belongs 2.61.
The same measure, in the same setting: to `Cc1onc(-c2ccccc2Cl)c1C(=O)NC1C(=O)N2C1SC(C)(C)C2C(=O)O` (stereo unspecified) belongs 2.48; to `CCCCN(C)N=Nc1ccc(C(N)=O)cc1`, 2.46.
Take `CCNP(=O)(OCC)ON=C(C#N)c1ccc(OC)cc1` (stereo unspecified): the logP came out at 2.39.
As for `O=c1c2ccccc2nc2n1CCCC2`, the log partition coefficient (logP) came to 1.52.
Still for that read-out and setting: in the case of `CCc1cc2n(c1C(=O)c1ccc(F)cc1)CCC2C(=O)O` (stereo unspecified) it was 3.63; in that of `CC(=O)c1ccc2cc(C(C)C(=O)OCC(N)=O)ccc2c1` (stereo unspecified), 2.06; in that of `O=C(Nc1ncnc2c1ncn2[C@@H]1O[C@H](CO)C[C@@H]1F)c1ccccc1`, 0.73.
In turn, `COC(=O)c1c(C)[nH]c(-c2ccc(Cl)cn2)c1C(=O)OC` showed a logP of 2.7.
The compound `CNC(=O)NCCCCn1nc(-c2ccccc2)ccc1=O` yielded a logP of 1.23.
The same measure, in the same setting: to `CCCN(C)C(=O)c1cccc(Oc2ccccc2)c1` belongs 3.44; to `Nc1cccc(C(=O)O)c1`, 0.65.
With `COc1ccc(COCc2cccc(CN3CCOCC3)c2)cc1`, the logP came out at 2.83.
In turn, `O=CNCC#CCC(NC(=O)C(Cc1ccc2ccccc2c1)Cc1cccc2ccccc12)C(=O)NC(CC1CCCCC1)C(O)CC(=O)NCCN1CCOCC1` (stereo unspecified) gave a logP of 5.44.
`O=C(OC[C@H]1O[C@@H](n2cc(I)c(=O)[nH]c2=O)C[C@@H]1O)c1ccccc1` yielded a logP of 1.4.
The same measure, in the same setting: to `CC(C)(C)C(COc1ccc(Br)cc1)OC(=S)n1ccnc1` (stereo unspecified) belongs 5.11; to `c1ccc(C2(N3CCCCC3)CCCCC2)cc1`, 4.69; to `Cc1c(O)c(=O)ccn1CCC(=O)N(C)C`, -1.16.
On to `CC(=O)NC(CO)C(N)=O` (stereo unspecified), for which the logP was -1.87.
As for `CCCCCCn1ccc(=O)c(O)c1CC`, the logP was 2.28.

What is called logP is the decadic logarithm of the partition coefficient of the neutral form, usually between octanol and water. High values mean higher lipophilicity, low ones lower lipophilicity. By logD is commonly meant lipophilicity at a set pH, counting ionised and neutral species. A lower logD goes with lower lipophilicity.
